#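 Results reflect a 48-hour exposure of cells in 96-well plates to compound at five concentrations. The concentration for 50% growth inhibition is given as GI50.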 The source made the active and inactive calls. Cut-off read from the data, not from the text of the source: active = GI50 up to about 1.1 µM and inactive = higher.
# What was measured:
# Assay in all cases: DTP human tumour cell line panel, 48 h
# EKVX = system: EKVX
# NCI-H522 = system: NCI-H522
# UACC-62 = system: UACC-62
# MOLT-4 = system: MOLT-4
# SK-MEL-28 = system: SK-MEL-28
# OVCAR-8 = system: OVCAR-8
# U-251 = system: U-251
# SNB-75 = system: SNB-75
# DU-145 = system: DU-145
# K562 = system: K562
# HCT-15 = system: HCT-15
# MDA-N = system: MDA-N
# COLO 205 = system: COLO 205
# HOP-62 = system: HOP-62
# HT-29 = system: HT-29
# CAKI-1 = system: CAKI-1
# HOP-92 = system: HOP-92
# BT-549 = system: BT-549
SMILES,GI50 (EKVX),GI50 (NCI-H522),GI50 (UACC-62),GI50 (MOLT-4),GI50 (SK-MEL-28),GI50 (OVCAR-8),GI50 (U-251),GI50 (SNB-75),GI50 (DU-145),GI50 (K562),GI50 (HCT-15) [µM],GI50 (MDA-N),GI50 (COLO 205),GI50 (HOP-62),GI50 (HT-29),GI50 (CAKI-1),GI50 (HOP-92),GI50 (BT-549)
CCN(CC)CCN1CCN=c2c3cc(OC)ccc3n3cnc4ccc1c2c43,1.01 µM (active),1.49 µM (inactive),1.71 µM (inactive),0.0385 µM (active),1.5 µM (inactive),0.318 µM (active),0.789 µM (active),0.714 µM (active),0.7 µM (active),0.2 µM (active),0.211,0.49 µM (active),0.362 µM (active),0.979 µM (active),0.0859 µM (active),0.621 µM (active),1.12 µM (inactive),1.27 µM (inactive)
O=C(/C=C/c1ccc(O)c(O)c1)NC(COC(=O)/C=C/c1ccc(O)c(O)c1)C(=O)O (centres undefined),> 100 µM (inactive),> 100 µM (inactive),> 100 µM (inactive),> 100 µM (inactive),> 100 µM (inactive),> 100 µM (inactive),> 100 µM (inactive),> 100 µM (inactive),> 100 µM (inactive),> 100 µM (inactive),> 100,> 100 µM (inactive),> 100 µM (inactive),> 100 µM (inactive),> 100 µM (inactive),> 100 µM (inactive),> 100 µM (inactive),> 100 µM (inactive)
Cn1c2ccccc2c2ccc3c(c21)C(=O)c1ccc2c4ccccc4n(C)c2c1C3=O,> 100 µM (inactive),> 100 µM (inactive),> 100 µM (inactive),> 100 µM (inactive),> 100 µM (inactive),> 100 µM (inactive),> 100 µM (inactive),> 100 µM (inactive),> 100 µM (inactive),> 100 µM (inactive),> 100,> 100 µM (inactive),> 100 µM (inactive),> 100 µM (inactive),> 100 µM (inactive),> 100 µM (inactive),> 100 µM (inactive),> 100 µM (inactive)
CC1(C)CCC(=O)NC1CC(=O)CC1NC(=O)CCC1(C)C (centres undefined),> 100 µM (inactive),> 100 µM (inactive),> 100 µM (inactive),> 100 µM (inactive),> 100 µM (inactive),> 100 µM (inactive),> 100 µM (inactive),> 100 µM (inactive),> 100 µM (inactive),> 100 µM (inactive),> 100,> 100 µM (inactive),> 100 µM (inactive),> 100 µM (inactive),> 100 µM (inactive),> 100 µM (inactive),> 100 µM (inactive),> 100 µM (inactive)
N#CCCN(CCC#N)c1ccc(C(/N=N/c2ccccc2)=N\c2ccccc2)cc1,> 100 µM (inactive),59.6 µM (inactive),> 100 µM (inactive),> 100 µM (inactive),> 100 µM (inactive),> 100 µM (inactive),> 100 µM (inactive),> 100 µM (inactive),> 100 µM (inactive),> 100 µM (inactive),> 100,> 100 µM (inactive),> 100 µM (inactive),> 100 µM (inactive),> 100 µM (inactive),> 100 µM (inactive),> 100 µM (inactive),13 µM (inactive)
O=C(O)Cc1cccnc1,> 100 µM (inactive),> 100 µM (inactive),> 100 µM (inactive),> 100 µM (inactive),> 100 µM (inactive),> 100 µM (inactive),> 100 µM (inactive),> 100 µM (inactive),> 100 µM (inactive),> 100 µM (inactive),> 100,> 100 µM (inactive),> 100 µM (inactive),> 100 µM (inactive),> 100 µM (inactive),> 100 µM (inactive),> 100 µM (inactive),> 100 µM (inactive)
CC1C(O)Oc2cc3c(cc2C1c1ccccc1O)OCO3 (centres undefined),43.6 µM (inactive),17.1 µM (inactive),29.5 µM (inactive),19.3 µM (inactive),25.8 µM (inactive),36.5 µM (inactive),37.8 µM (inactive),24.6 µM (inactive),40.6 µM (inactive),17.6 µM (inactive),33.1,30.5 µM (inactive),16.2 µM (inactive),65 µM (inactive),23.3 µM (inactive),29.2 µM (inactive),15.2 µM (inactive),34.9 µM (inactive)
COc1ccc(C2c3cc4c(cc3OC(N3CCOCC3)C2C)OCO4)c(OC)c1 (centres undefined),13.9 µM (inactive),2.68 µM (inactive),5.56 µM (inactive),3.58 µM (inactive),8.49 µM (inactive),8 µM (inactive),4.09 µM (inactive),3.95 µM (inactive),9.89 µM (inactive),3.02 µM (inactive),4.34,1.64 µM (inactive),9.33 µM (inactive),5.06 µM (inactive),3.48 µM (inactive),4.47 µM (inactive),3.32 µM (inactive),3.23 µM (inactive)
